Reference: patent US6399052B2, “Treating hair by targeting enzymes” (Unilever Home & Personal Care USA division of Conopco, Inc., priority 1999, dated 2002)
Peptide text beside a SMILES is read from it. * marks the point of attachment. AMC = Cc1cc(=O)oc2cc(N*)ccc12; Cbz = O=C(OCc1ccccc1)*

How the values were obtained:
[1] = tested on: cathepsin L-type protease activity of hair extract; assay: peptidyl-AMC protease assay of hair fibre extract; assay type: biochemical, human
Method: Hair fibres taken from approx. 5 mm from the scalps of male and female individuals, aged 25-35, were cleaned, dried and then ground in liquid N2, and homogenised with an Ystral Homogeniser (high shear) using a 10 mm probe in extraction buffer (50 mM Citrate-Phosphate pH6.0, 2M NaCl).
Triton X-100 (2% stock) was added to the homogenate to a final concentration of 0.1%, and intermittently mixed by gentle agitation and incubated on ice for 1 hour. Large hair debris was allowed to precipitate and the solution was centrifuged at 13000 rpm for 5 minutes to remove insoluble protein. The resulting supernatant, containing soluble protein was dialysed (MWCO ca […]) in 50 mM citrate-phosphate, pH 6.0. Glycerol was added to the dialysed extract to 20% (v/v). The extracts were then aliquotted and stored at −20° C. until required.
With the above information, it was decided to investigate the protease profile of the hair extracts with the use of more specific peptide substrates (peptidyl-7-amido-4-methylcoumarin (peptidyl-AMC) substrates). Seven peptidyl-AMC substrates were used to study the protease types within the hair extract. These were selected on the basis of their specificity for individual protease species.
Stock solutions of each peptidyl-AMC substrate (Bachem) were prepared at 10 mM in DMSO and stored in aliquots at 4° C. Each aliquot was diluted to 1 mM with MQ water, prior to use. All assays (100 μl final volume) were routinely conducted in triplicate. For the measurement of cysteine protease activity, the standard assay contained 50 mM citrate-phosphate buffer pH 6.0, 100 μM peptidyl-AMC, 5 mM cysteine and approximately 1 μg protein extract. The assays were initiated by the addition of substrate and incubated at 30° C. for 2 hours. The reactions were terminated with the addition of 1 ml ‘stop’ solution (100 mM sodium monochloroacetate, 30 mM sodium acetate, 70 mM acetic acid).
The hydrolysed AMC was measured with the use of a fluorimeter set to 370 nm (excitation) and 460 nm (emission). Protease activity was quantified using standard concentrations of AMC. The fluorescence of each substrate and the hair extract were also measured and these values subtracted from the final fluorescence of each reaction, to give the value of fluorescence increase due to AMC liberation.

human steroid sulphatase = biological target: T1, human steroid sulphatase (Homo sapiens, UniProt P08842); settings: substrate cholesterol-3-sulphate; cited from earlier work
T1 sequence (P08842 22-583): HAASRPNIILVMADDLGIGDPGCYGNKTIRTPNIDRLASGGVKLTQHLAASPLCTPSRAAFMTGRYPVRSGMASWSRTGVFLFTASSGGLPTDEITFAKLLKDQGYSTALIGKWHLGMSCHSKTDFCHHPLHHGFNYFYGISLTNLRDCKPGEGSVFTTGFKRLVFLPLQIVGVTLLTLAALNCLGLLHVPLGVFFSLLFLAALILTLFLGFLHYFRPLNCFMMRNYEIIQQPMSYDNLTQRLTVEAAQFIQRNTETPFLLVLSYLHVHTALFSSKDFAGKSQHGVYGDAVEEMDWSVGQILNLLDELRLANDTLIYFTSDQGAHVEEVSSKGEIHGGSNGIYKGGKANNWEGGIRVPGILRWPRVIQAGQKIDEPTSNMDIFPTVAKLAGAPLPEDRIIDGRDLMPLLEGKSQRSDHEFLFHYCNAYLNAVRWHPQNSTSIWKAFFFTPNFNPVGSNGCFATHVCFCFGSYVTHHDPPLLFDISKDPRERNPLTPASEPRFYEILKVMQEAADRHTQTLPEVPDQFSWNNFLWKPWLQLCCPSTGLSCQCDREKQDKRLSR

[2] = hair fibre extract, substrate z-Phe-Arg-AMC

## CC(C)C[C@H](NC(=O)[C@H]1O[C@@H]1C(=O)O)C(=O)NCCCCN=C(N)N (relative stereo) [E-6464, L-trans-epoxysuccinyl-leucylamido(4-guanido)butane]
[1]; [2]
  inhibition of the z-Phe-Arg-AMC hydrolysing activity of hair extract: potently inhibited

## Cc1cc(=O)oc2cc(NC(=O)C(CCCN=C(N)N)NC(=O)C(Cc3ccccc3)NC(=O)OCc3ccccc3)ccc12 (stereo not drawn) [z-Phe-Arg-AMC] (Cbz-Phe-Arg-{AMC}; configuration not given here)
[1]; hair extract, 1 mg of extract from approx. 9 g hair
  apparent Vmax of cathepsin L-type activity: 1.66 nmoles AMC produced per minute per mg hair extract
[1]; seven peptidyl-AMC substrates, 100 μM, pH 6.0, 30° C., 2 hours
  hydrolysis by the hair extracts compared with the other peptidyl-AMC substrates: most hydrolysed

## N[C@@H](CS)C(=O)O [cysteine]
[1]; [2]
  stimulation of the z-Phe-Arg-AMC hydrolysing activity of hair extract: stimulated

## CC(C)CCC[C@@H](C)[C@H]1CC[C@H]2[C@@H]3CC=C4C[C@@H](OS(=O)(=O)O)CC[C@]4(C)[C@H]3CC[C@]12C [cholesterol-3-sulphate]
Human steroid sulphatase
  Km: 5 µM
